Measured values as given in PMC8282797, “Strictly regulated agonist-dependent activation of AMPA-R is the key characteristic of TAK-653 for robust synaptic responses and cognitive improvement” (Scientific Reports, 2021).
pEC50, pIC50: −log10 of the molar value. “Also recorded” adds a separate entry of the source. Read-outs that look alike come from different tables or passages of the source.

Tests used:
[1] = system: MK-801-induced working memory deficit in rats; assay: Radial arm maze (RAM) test, MK-801-induced working memory deficit; assay type: in vivo, rat
Experimental: RAM tests were performed using 9-week-old male Long-Evans rats as previously described with a minor modification. Each arm was 50 cm long, 10 cm wide and 40 cm high, and the maze was elevated 50 cm above the floor. Long-Evans rats were food-restricted to 85% of free-feeding body weight throughout the experimental period. Rats were well trained to collect pellets placed on the edge of each arm. The learning criterion for the testing session was defined as 2 errors or fewer for 2 consecutive days. In the testing session, each rat was placed on the maze facing the fixed arm at the start of the trial. The entry of rats into each arm was recorded in sequence until all pellets in the 8 arms were consumed, or 5 min had elapsed. […] Thirty min after dosing of vehicle or MK-801, rats were placed on the maze. Details are described in the Supplementary Information.
The experiment was performed using 9-week-old male Long-Evans rats as described previously (Zajaczkowski et al., 1996) with a minor modification. Each arm was 50 cm long, 10 cm wide and 40 cm high, and the maze was elevated 50 cm above the floor. After being fasted for 24 h, male Long-Evans rats were food-restricted to 85% of free-feeding body weight on the first day of exposure to the maze and throughout the experimental period. The experiment consists of two sessions, training and testing session. In the training session, rats were habituated to the maze and then trained. Reinforcement consisted of 3 food pellets (45 mg each) in the food cup was used. On the first day of habituation to the maze, reinforcements were placed near the entrance and at the mid-point of each arm. Three rats were placed on the maze at one time and allowed to explore and consume the pellets for 8 min. On the second day of habituation, each rat was placed on the maze and allowed 5 min to consume the pellets placed at the mid-point and in the food cup at the end of each arm. From the third day, reinforcement was placed in the food cup at the end of each arm. Rats were well trained to collect pellets placed on the edge of each arm. The learning criterion for the testing session was defined as 2 errors or less for two consecutive days. In the previous day of the testing session, baseline level of performance was qualified to confirm that rats completed collecting all pellets placed in the 8 arms with two errors or less. In the testing session, each rat was placed on the maze facing away from the experimenter and facing the fixed arm at the start of the trial. The entry of rats into each arm was recorded in sequence. Rats were allowed to explore until all pellets in the 8 arms were consumed, or 5 min had elapsed. Entry into an arm previously chosen was counted as an error. […] […] Thirty min after dosing of vehicle or MK-801, rats were placed on the maze. Data were indicated as the mean ± SEM in the testing session.

AMPA-R [2] = assay: Whole-cell patch clamp recording in acute PFC slices (AMPA-R-mediated EPSPs); assay type: cell-based, rat; set-up: key to Synaptic EPSP response: -: No effect or slight effect; +: Potent; ++: Very potent; conditions: for Synaptic EPSP response: summary grade
Experimental: Coronal PFC slices were prepared from male Sprague–Dawley rats (10- to 14-day-old). The slices including layer V PFC pyramidal neurons were perfused at a flow rate of 1–2 ml/min with recording aCSF containing the following: 124 mM NaCl, 5 mM KCl, 1.2 mM NaH2PO4, 1.5 mM MgCl2, 2.5 mM CaCl2, 10 mM glucose, 24 mM NaHCO3 bubbled with carbogen (95% O2; 5% CO2). Current clamp recordings at holding potential of approximately − 65 mV with constant current were carried out at 32–33 °C using a pipette filled with an intracellular solution consisting of: 140 mM K-gluconate, 4 mM KCl, 10 mM HEPES, 0.2 mM EGTA, 4 mM MgATP, 0.3 mM Na2GTP, pH 7.3 with KOH in the presence of bicuculline (20 μM), CGP52422 (10 μM), and APV (50 μM) to block GABAA and B and NMDA receptors, respectively. Methods are described in the Supplementary Information.
Coronal prefrontal cortex (PFC) slices were prepared from male Sprague-Dawley rats (10- to 14-day-old). Animals were sacrificed following acute decapitation, and their brain was quickly removed and placed in an ice-cold modified artificial cerebrospinal fluid (aCSF) of the following composition: 92 mM N-methyl-D-glucamine (NMDG), 2.5 mM KCl, 1.25 mM NaH2PO4, 30 mM NaHCO3, 20 mM HEPES, 25 mM glucose, 2 mM thiourea, 5 mM Na-ascorbate, 3 mM Na-pyruvate, 0.5 mM CaCl2, and 10 mM MgSO4. The pH of the solution was titrated to 7.3-7.4 with concentrated HCl. Coronal slices were cut at a thickness of 300 μm with using a linear slicer PRO7 (Dosaka EM, Kyoto, Japan). Slices were initially recovered for ≤ 15 min at 34°C and then transferred to a holding chamber containing HEPES holding aCSF (92 mM NaCl, 2.5 mM KCl, 1.25 mM NaH2PO4, 30 mM NaHCO3, 20 mM HEPES, 25 mM glucose, 2 mM thiourea, 5 mM Na-ascorbate, 3 mM Na-pyruvate, 2 mM CaCl2 and 2 mM MgSO4) at room temperature for at least 1 h before starting the recording. The slices were then transferred to the recording chamber mounted on a FN1 microscope (Nikon, Tokyo, Japan), in which they were submerged and perfused at a flow rate of 1-2 ml/min with recording aCSF containing the following: 124 mM NaCl, 5 mM KCl, 1.2 mM NaH2PO4, 1.5 mM MgCl2, 2.5 mM CaCl2, 10 mM glucose, 24 mM NaHCO3. All aCSF solutions were continuously bubbled with carbogen (95% O2; 5% CO2). Differential interference contrast (DIC) microscopy (C10639, Hamamatsu, Japan) was used to visualize pyramidal neurons in the PFC. Patch pipettes (5-6 MΩ) were prepared from borosilicate capillary glass using a micropipette puller PC-10 (NARISHIGE, Tokyo, Japan). Current clamp recordings were carried out at 32-33°C using a pipette filled with intracellular solution consisting of: 140 mM K-gluconate, 4 mM KCl, 10 mM HEPES, 0.2 mM EGTA, 4 mM MgATP, 0.3 mM Na2GTP, pH 7.3 with KOH in the presence of bicuculline (20 μM), CGP52422 (10 μM), and APV (50 μM) to block GABAA and B and NMDA receptors, respectively. Signals were recorded using a Multiclamp 700B amplifier (Molecular Devices, LLC, Orleans Drive Sunnyvale, CA), digitized using a Digidata 1440A interface board, filtered between 2 kHz, sampled at 10 kHz, and analyzed with pClamp10 software. Layer V PFC pyramidal neurons were recorded at holding potential of approximately –65 mV with constant current. A hyperpolarizing step (–20 pA) prior to each stimulation was used to monitor any changes in access resistance. Postsynaptic potentials were evoked by constant current single stimulation pulses (100 μs, 10-100 μA) delivered with a 20-s interstimulus interval using monopolar stimulating electrodes positioned in layer I.

GluA2o LBD = GluA2o LBD (Homo sapiens, UniProt P42262); set-up: method as in earlier work; conditions: read-out: IC50, binding affinity to the GluA2o LBD by SPA using [3H]-HBT1; cited from earlier work
AMPA-R [3] = system: AMPA-R; set-up: key to Single effect on Ca2+ level: -: No effect or slight effect; +: Potent; ++: Very potent; conditions: cited from earlier work; for Intracellular Ca2+ level, Agonistic effect @30 μM: absence of AMPA, % of 5 μM AMPA + 10 μM HBT1 response; for pEC50: in the presence of 5 μM AMPA, read-out: Intracellular Ca2+ level, Potentiation EC50; for Single effect on Ca2+ level: summary grade
AMPA-R [4] = system: AMPA-R; set-up: key to Single effect on AMPA-R currents: -: No effect or slight effect; +: Potent; ++: Very potent; conditions: cited from earlier work; for AMPA-R currents, Agonistic effect @30 μM: absence of AMPA, % of AMPA (100 μM)-induced steady-state response; for pEC50: in the presence of 1 μM AMPA, read-out: AMPA-R currents, Potentiation EC50; for Single effect on AMPA-R currents: summary grade
naïve rats = conditions: cited from earlier work; for NORT (effective doses): summary
rats [5] = conditions: cited from earlier work
rats [6] = system: rats; set-up: method as in PMID 30209408; conditions: 10 and 30 mg/kg, p.o.; cited from earlier work
[7] = system: MK-801-induced working memory deficit in rats; set-up: method as in earlier work; conditions: summary, fasted conditions; cited from earlier work
[8] = set-up: method as in earlier work; conditions: cited from earlier work

Sequence of GluA2o LBD (P42262 with tags, fused parts or gaps): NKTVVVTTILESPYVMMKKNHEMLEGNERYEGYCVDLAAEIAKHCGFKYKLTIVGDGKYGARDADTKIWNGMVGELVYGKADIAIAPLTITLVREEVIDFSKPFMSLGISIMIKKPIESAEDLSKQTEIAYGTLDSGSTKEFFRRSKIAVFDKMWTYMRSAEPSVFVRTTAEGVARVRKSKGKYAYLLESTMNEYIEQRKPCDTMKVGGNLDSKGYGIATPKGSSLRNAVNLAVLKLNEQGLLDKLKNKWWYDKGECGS

CC(C)S(=O)(=O)NC[C@H](C)c1ccc(-c2ccc(C#N)cc2)cc1 [LY451646]
Working memory in the RAM test ([1]; 0.03 to 1 mg/kg, p.o., MK-801 0.08 mg/kg, s.c.): neither LY451646 at 0.03 to 1 mg/kg, p.o. nor AMPA at 0.1 to 3 mg/kg, i.p. improve | RAM (effective doses) ([1]; summary): No effect | Membrane potentials of recorded neurons (AMPA-R [2]): did not increase | Suprathreshold response (AMPA-R [2]; 30 μM for 10 min): enhanced the suprathreshold response | Suprathreshold polysynaptic EPSPs (number of spikes, EPSP duration) (AMPA-R [2]; 0.3 to 30 μM): moderate potentiation | Synaptic EPSP response (AMPA-R [2]): + | pIC50 (GluA2o LBD): 6.41 | Intracellular Ca2+ level, Agonistic effect @30 μM (AMPA-R [3]): 88% | pEC50 (AMPA-R [3]): 6.11 | Single effect on Ca2+ level (AMPA-R [3]): ++ | AMPA-R currents, Agonistic effect @30 μM (AMPA-R [4]): 39% | pEC50 (AMPA-R [4]): 5.72 | Single effect on AMPA-R currents (AMPA-R [4]): + | Dose improving visual learning and memory in NOR test (naïve rats; p.o., rats): ≥ 1 mg/kg | NORT (effective doses) (naïve rats): Effective (1, 3) | Margin based on AUCplasma (rats [5]): 4.0 fold | Margin based on plasma Cmax (rats [5]): 3.4 fold | Seizure (rats [6]): induced seizure

O=S1(=O)CCN2C=CC=C(c3ccc(Oc4ccccc4)cc3)C2=N1 [TAK-137, 9-(4-phenoxyphenyl)-3,4-dihydropyrido[2,1-c][1,2,4]thiadiazine 2,2-dioxide]
Polysynaptic EPSP duration and evoked spikes (AMPA-R [2]; 3 μM, 10 min): potently enhanced; also recorded: robustly enhanced | Synaptic EPSP response (AMPA-R [2]): ++ | pIC50 (GluA2o LBD): 7.19 | Intracellular Ca2+ level, Agonistic effect @30 μM (AMPA-R [3]): 7.6% | pEC50 (AMPA-R [3]): 6.38 | Single effect on Ca2+ level (AMPA-R [3]): ─ | AMPA-R currents, Agonistic effect @30 μM (AMPA-R [4]): 6.4% | pEC50 (AMPA-R [4]): 5.85 | Single effect on AMPA-R currents (AMPA-R [4]): ─ | NORT (effective doses) (naïve rats): Effective (0.1, 1) | RAM (effective doses) [7]: Effective (0.2, 0.6) ^\ | Margin based on AUCplasma (rats [5]): 122 fold | Margin based on plasma Cmax (rats [5]): 42 fold | Brain concentration under fasted conditions, relative to fed conditions [8]: 71% | Plasma concentration under fasted conditions, relative to fed conditions [8]: 67%
